From PubChem BioAssay (NCI)
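Method: 48-hour compound exposure of cells in 96-well plates, five concentrations, linear interpolation of endpoints. Here, GI50 denotes the concentration required for 50% inhibition of growth. TGI is the concentration that stops growth completely.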

Legend:
Experiment in all cases: DTP human tumour cell line panel, 48 h
K-562 leukemia = system: K-562 leukemia
UO-31 renal = system: UO-31 renal
LOX IMVI melanoma = system: LOX IMVI melanoma
MALME-3M melanoma = system: MALME-3M melanoma
MDA-MB-231 breast = system: MDA-MB-231 breast
786-0 renal = system: 786-0 renal
SK-MEL-5 melanoma = system: SK-MEL-5 melanoma
SN12C renal = system: SN12C renal
COLO 205 colon = system: COLO 205 colon
SK-MEL-2 melanoma = system: SK-MEL-2 melanoma
SR leukemia = system: SR leukemia
SF-295 CNS = system: SF-295 CNS
MCF7 breast = system: MCF7 breast
T-47D breast = system: T-47D breast
CAKI-1 renal = system: CAKI-1 renal
HT29 colon = system: HT29 colon
U251 CNS = system: U251 CNS
DU-145 prostate = system: DU-145 prostate
CCRF-CEM leukemia = system: CCRF-CEM leukemia
ACHN renal = system: ACHN renal
A498 renal = system: A498 renal
KM12 colon = system: KM12 colon
SK-MEL-28 melanoma = system: SK-MEL-28 melanoma
UACC-257 melanoma = system: UACC-257 melanoma
OVCAR-5 ovarian = system: OVCAR-5 ovarian
NCI-H522 lung = system: NCI-H522 lung
HL-60(TB) leukemia = system: HL-60(TB) leukemia
NCI/ADR-RES ovarian = system: NCI/ADR-RES ovarian
HOP-62 NSCLC = system: HOP-62 NSCLC
SNB-19 CNS = system: SNB-19 CNS
SF-268 CNS = system: SF-268 CNS
SW-620 colon = system: SW-620 colon
HCT-116 colon = system: HCT-116 colon
EKVX NSCLC = system: EKVX NSCLC
MDA-MB-435 = system: MDA-MB-435
MOLT-4 leukemia = system: MOLT-4 leukemia
SK-OV-3 ovarian = system: SK-OV-3 ovarian
SNB-75 CNS = system: SNB-75 CNS
SF-539 CNS = system: SF-539 CNS
NCI-H226 lung = system: NCI-H226 lung
IGROV1 ovarian = system: IGROV1 ovarian
A549 NSCLC = system: A549 NSCLC
NCI-H23 lung = system: NCI-H23 lung
M14 melanoma = system: M14 melanoma
BT-549 breast = system: BT-549 breast
PC-3 prostate = system: PC-3 prostate
OVCAR-4 ovarian = system: OVCAR-4 ovarian
OVCAR-8 ovarian = system: OVCAR-8 ovarian
HS 578T breast = system: HS 578T breast
NCI-H460 lung = system: NCI-H460 lung
HCC-2998 colon = system: HCC-2998 colon
UACC-62 melanoma = system: UACC-62 melanoma
HCT-15 colon = system: HCT-15 colon
RXF 393 renal = system: RXF 393 renal
OVCAR-3 ovarian = system: OVCAR-3 ovarian
RPMI-8226 leukemia = system: RPMI-8226 leukemia

`Cc1nn(-c2ccccc2)c2ncc3c(c12)C(=O)N(Cc1ccccc1)C3=O` was tested, and the GI50 (K-562 leukemia) was 3.73 µM, the TGI (K-562 leukemia) was 41.9 µM and the GI50 (UO-31 renal) was 2.65 µM. It also gave a TGI (UO-31 renal) of 8.17 µM, a GI50 (LOX IMVI melanoma) of 4.58 µM and a TGI (LOX IMVI melanoma) of over 100 µM. The GI50 (MALME-3M melanoma) was 5.24 µM, the TGI (MALME-3M melanoma) was over 100 µM and the GI50 (MDA-MB-231 breast) was 5.11 µM. The TGI (MDA-MB-231 breast) was 50.2 µM, the GI50 (786-0 renal) was 1.94 µM and the TGI (786-0 renal) was 5.12 µM. For the same compound, the GI50 (SK-MEL-5 melanoma) was over 100 µM, the TGI (SK-MEL-5 melanoma) was over 100 µM and the GI50 (SN12C renal) was 9.29 µM. For the same compound, the TGI (SN12C renal) was over 100 µM, the GI50 (COLO 205 colon) was 4.99 µM and the TGI (COLO 205 colon) was over 100 µM. The GI50 (SK-MEL-2 melanoma) was 13.7 µM, the TGI (SK-MEL-2 melanoma) was 31.5 µM and the GI50 (SR leukemia) was 5.86 µM. The TGI (SR leukemia) was over 100 µM, the GI50 (SF-295 CNS) was 3.14 µM and the TGI (SF-295 CNS) was 10.7 µM. The GI50 (MCF7 breast) was over 100 µM, the TGI (MCF7 breast) was over 100 µM and the GI50 (T-47D breast) was 4.86 µM. The TGI (T-47D breast) was 20.7 µM, the GI50 (CAKI-1 renal) was 2.43 µM and the TGI (CAKI-1 renal) was 5.97 µM. The GI50 (HT29 colon) was over 100 µM, the TGI (HT29 colon) was over 100 µM and the GI50 (U251 CNS) was 3.12 µM. For the same compound, the TGI (U251 CNS) was 14.2 µM, the GI50 (DU-145 prostate) was 72.2 µM and the TGI (DU-145 prostate) was over 100 µM. For the same compound, the GI50 (CCRF-CEM leukemia) was 1.99 µM, the TGI (CCRF-CEM leukemia) was 16.8 µM and the GI50 (ACHN renal) was 3.57 µM. For the same compound, the TGI (ACHN renal) was 13.7 µM, the GI50 (A498 renal) was 3.51 µM and the TGI (A498 renal) was 21.8 µM. It also gave a GI50 (KM12 colon) of over 100 µM, a TGI (KM12 colon) of over 100 µM and a GI50 (SK-MEL-28 melanoma) of over 100 µM. The TGI (SK-MEL-28 melanoma) was over 100 µM, the GI50 (UACC-257 melanoma) was over 100 µM and the TGI (UACC-257 melanoma) was over 100 µM. The GI50 (OVCAR-5 ovarian) was over 100 µM, the TGI (OVCAR-5 ovarian) was over 100 µM and the GI50 (NCI-H522 lung) was 19.8 µM. It also gave a TGI (NCI-H522 lung) of over 100 µM, a GI50 (HL-60(TB) leukemia) of over 100 µM and a TGI (HL-60(TB) leukemia) of over 100 µM. The GI50 (NCI/ADR-RES ovarian) was 4.46 µM, the TGI (NCI/ADR-RES ovarian) was over 100 µM and the GI50 (HOP-62 NSCLC) was 3.73 µM. It also gave a TGI (HOP-62 NSCLC) of 13.8 µM, a GI50 (SNB-19 CNS) of 12.7 µM and a TGI (SNB-19 CNS) of over 100 µM. For the same compound, the GI50 (SF-268 CNS) was 7.66 µM, the TGI (SF-268 CNS) was 66.5 µM and the GI50 (SW-620 colon) was over 100 µM. For the same compound, the TGI (SW-620 colon) was over 100 µM, the GI50 (HCT-116 colon) was 1.21 µM and the TGI (HCT-116 colon) was 6.67 µM. The GI50 (EKVX NSCLC) was 5.64 µM, the TGI (EKVX NSCLC) was over 100 µM and the GI50 (MDA-MB-435) was over 100 µM. The TGI (MDA-MB-435) was over 100 µM, the GI50 (MOLT-4 leukemia) was 6.77 µM and the TGI (MOLT-4 leukemia) was 40.3 µM. The GI50 (SK-OV-3 ovarian) was 5.73 µM, the TGI (SK-OV-3 ovarian) was over 100 µM and the GI50 (SNB-75 CNS) was 2.23 µM. For the same compound, the TGI (SNB-75 CNS) was 6.64 µM, the GI50 (SF-539 CNS) was 12.2 µM and the TGI (SF-539 CNS) was 56.7 µM. For the same compound, the GI50 (NCI-H226 lung) was 3.46 µM, the TGI (NCI-H226 lung) was 13 µM and the GI50 (IGROV1 ovarian) was 5.37 µM. It also gave a TGI (IGROV1 ovarian) of 64.7 µM, a GI50 (A549 NSCLC) of 5.25 µM and a TGI (A549 NSCLC) of over 100 µM. For the same compound, the GI50 (NCI-H23 lung) was 9.64 µM, the TGI (NCI-H23 lung) was 66.1 µM and the GI50 (M14 melanoma) was 4.98 µM. It also gave a TGI (M14 melanoma) of over 100 µM, a GI50 (BT-549 breast) of 4.23 µM and a TGI (BT-549 breast) of 38.6 µM. It also gave a GI50 (PC-3 prostate) of 10.1 µM, a TGI (PC-3 prostate) of over 100 µM and a GI50 (OVCAR-4 ovarian) of 2.18 µM. It also gave a TGI (OVCAR-4 ovarian) of 5.48 µM, a GI50 (OVCAR-8 ovarian) of 5.14 µM and a TGI (OVCAR-8 ovarian) of over 100 µM. The GI50 (HS 578T breast) was 2.98 µM, the TGI (HS 578T breast) was over 100 µM and the GI50 (NCI-H460 lung) was 2.55 µM. For the same compound, the TGI (NCI-H460 lung) was over 100 µM, the GI50 (HCC-2998 colon) was over 100 µM and the TGI (HCC-2998 colon) was over 100 µM. The GI50 (UACC-62 melanoma) was 21.5 µM, the TGI (UACC-62 melanoma) was over 100 µM and the GI50 (HCT-15 colon) was over 100 µM. The TGI (HCT-15 colon) was over 100 µM, the GI50 (RXF 393 renal) was 6.67 µM and the TGI (RXF 393 renal) was 38.3 µM. For the same compound, the GI50 (OVCAR-3 ovarian) was 3.31 µM, the TGI (OVCAR-3 ovarian) was 9.84 µM and the GI50 (RPMI-8226 leukemia) was 3.61 µM. For the same compound, the TGI (RPMI-8226 leukemia) was 31.8 µM.
